# Experimental data: US20260125359A1, “HETEROARYL COMPOUNDS AS MULTI-TARGET PROTEIN KINASE INHIBITORS” (FUJIAN HAIXI PHARMACEUTICALS CO., LTD., priority 2023, published 2026)
# Test system: M-NFS-60 cells
# Experiment: M-NFS-60 cell in vitro assay (CCK, 48 h, M-CSF factor medium)
# Assay type: cell-based
# Details: M-NFS-60 cells; read-out: M-NFS-60cellassay IC50
# Procedure, shortened: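 Mouse M-NFS-60 cells (2000/well) in RPMI-1640 with 10% serum and M-CSF (25 ng/ml) were pre-incubated 4 h, then exposed to DMSO-diluted compound gradients for 48 h at 5% CO2. Viability read by CCK, 2 h, OD 450 nm; IC50 from curve fitting.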
row,Structure (SMILES),IC50 [nM]
1,COc1ccc(F)c(NC(=O)c2cccc3c2CC[C@@H]3N(C)c2cnc3cn(C)nc3c2)c1 [Compound 80p],< 50
2,Cn1cc(-c2cncc(N[C@H]3CCc4c(CNc5ccccc5F)cccc43)n2)cn1 [Compound 59e],> 500
3,Cn1cc(-c2cncc(N[C@H]3CCc4c(CNc5cccc(C(F)(F)F)c5)cccc43)c2)cn1 [Compound 59c],> 500
4,Cn1cc2ncc(N[C@H]3CCc4c(Nc5noc(C6(C(F)(F)F)CC6)n5)cccc43)cc2n1 [Compound 93g],< 50
5,"Cn1cc(-c2cncc(N[C@H]3CCc4c(NC5(c6ccccc6)COC5)cccc43)c2)cn1 [Compound 63, (S)—N^1-(5-(1-methyl-1H-pyrazol-4-yl)pyridin-3-yl)-N^4-(3-phenyloxetan-3-yl)-2,3-dihydro-1H-indene-1,4-diamine]",> 500
6,"COc1cc(C(=O)Nc2cccc3c2C(=O)CC3Nc2cncc(-c3cnn(C)c3)c2)ccc1F (stereo not shown) [Compound 69, 4-fluoro-3-methoxy-N-(1-((5-(1-methyl-1H-pyrazol-4-yl)pyridin-3-yl)amino)-3-oxo-2,3-dihydro-1H-inden-4-yl)benzamide]",> 500
7,Cn1cc(-c2cncc(N[C@H]3CCc4c(NCC5CCCCC5)cccc43)n2)cn1 [Compound 60b],> 500
8,"Cn1cc2ncc(N[C@H]3CCc4c(Nc5noc(C6(C)COC6)n5)cccc43)cc2n1 [Compound 92, (S)—N^1-(2-methyl-2H-pyrazolo[4,3-b]pyridin-6-yl)-N^4-(5-(3-methyloxetan-3-7)-1,2,4-oxadiazol-3-yl)-2,3-dihydro-1H-indene-1,4-d]",> 500
9,Cn1cc(-c2cncc(N[C@H]3CCc4c(C(=O)Nc5cccc(C6CC6)c5)cccc43)n2)cn1 [Compound 27a],< 50
10,Cn1cc(-c2cncc(N[C@H]3CCc4c(C(=O)NC5CCC(F)(F)CC5)cccc43)n2)cn1 [Compound 27f],< 50
11,"Cn1cc2ncc(N[C@H]3CCc4c(NC(=O)c5cccc(C6CC6)c5)cccc43)cc2n1 [Compound 81, (S)-3-cyclopropyl-N-(1-((2-methyl-2H-pyrazolo[4,3-b]pyridin-6-yl)amino)-2,3-dihydro-1H-inden-4-yl)benzamide]",< 50
12,Cc1cccc(NC(=O)c2cccc3c2CC[C@@H]3Nc2cnc3cn(C)nc3c2)c1F [Compound 74i],< 50
13,Cn1cc2ncc(N[C@H]3CCc4c(Nc5cc(C(C)(C)C(F)(F)F)on5)cccc43)cc2n1 [Compound 91j],< 50
14,"Cc1cccc(C(=O)Nc2cccc3c2CC[C@@H]3Nc2cnc3cn(C)nc3c2)c1F [Compound 82, (S)-2-fluoro-3-methyl-N-(1-((2-methyl-2H-pyrazolo[4,3-b]pyridin-6-yl)amino)-2,3-dihydro-1H-inden-4-yl)benzamide]",< 50
15,"Cc1cccc(C(=O)Nc2cccc3c2CCC3Nc2cncc(-c3cnn(C)c3)c2)c1 (stereo not shown) [Compound 8, 3-methyl-N-(1-((5-(1-methyl-1H-pyrazol-4-yl)pyridin-3-yl)amino)-2,3-dihydro-1H-inden-4-yl)benzamide]",< 50
16,Cn1cc(-c2cnc(N)c(O[C@H]3CCc4c(NC(=O)c5ccc6c(c5)OC(F)(F)O6)cccc43)c2)cn1 [Compound 3c],50 to 200
17,Cn1cc(-c2cncc(N[C@H]3CCc4c(C(=O)Nc5cncc(Cl)c5)cccc43)n2)cn1 [Compound 27k],< 50
18,CN1CCc2nc(NC(=O)c3cccc4c3CC[C@@H]4N(C)c3cnc4cn(C)nc4c3)sc2C1 [Compound 80o],< 50
19,"Cn1cc(-c2cncc(O[C@H]3CCc4c(C(=O)Nc5ccc(C(F)(F)F)cc5)cccc43)c2)cn1 [Compound 17, (S)-1-((5-(1-methyl-1H-pyrazol-4-yl)pyridin-3-yl)oxy)-N-(4-(trifluoromethyl)phenyl)-2,3-dihydro-1H-indene-4-carboxamide]",< 50
20,Cn1cc(-c2cncc(N[C@H]3CCc4c(C(=O)Nc5ccccc5F)cccc43)n2)cn1 [Compound 27n],< 50

row,Structure (SMILES),IC50 [nM]
1,Cn1cc2ncc(N[C@H]3CCc4c(Nc5noc(C6(C(F)(F)F)CCCC6)n5)cccc43)cc2n1 [Compound 93l],< 50
2,Cn1cc2ncc(N[C@H]3CCc4c(Nc5noc(C6CC6)n5)cccc43)cc2n1 [Compound 93j],200 to 500
3,CN(C)Cc1ccc(NC(=O)c2cccc3c2CC[C@@H]3Nc2cncc(-c3cnn(C)c3)c2)cc1 [Compound 14au],50 to 200
4,Cn1cc(-c2cncc(N[C@H]3CCc4c(C(=O)NC5CCOCC5)cccc43)n2)cn1 [Compound 27l],> 500
5,CN(C)Cc1ccc(NC(=O)c2cccc3c2CC[C@@H]3Oc2cncc(-c3cnn(C)c3)c2)cc1 [Compound 19c],50 to 200
6,CN(C)Cc1ccc(NC(=O)c2cccc3c2CC[C@@H]3N(C)c2cnc3cnn(C)c3c2)cc1F [Compound 80c],50 to 200
7,CN1CCc2cc(NC(=O)c3cccc4c3CC[C@@H]4Oc3cncc(-c4cnn(C)c4)c3)ccc2C1 [Compound 19i],50 to 200
8,Cn1cc2ncc(N[C@H]3CCc4c(CNc5nc(C6CC6)cs5)cccc43)cc2n1 [Compound 96d],> 500
9,Cn1cc(-c2cncc(N[C@H]3CCc4c(NC(=O)Nc5ccccc5F)cccc43)n2)cn1 [Compound 65e],< 50
10,"Cc1cccc(NC(=O)c2ccc(F)c3c2CC[C@@H]3Nc2cnc3cn(C)nc3c2)c1F [Compound 84, (S)-7-fluoro-N-(2-fluoro-3-methylphenyl)-1-((2-methyl-2H-pyrazolo[4,3-b]pyridin-6-yl)amino)-2,3-dihydro-1H-indene-4-carboxamide]",< 50
11,"Cn1cc(-c2cncc(NC3CCc4c(NC(=O)c5ccc6c(c5)OC(F)(F)O6)cccc43)c2)cn1 (stereo not shown) [Compound 9, 2,2-difluoro-N-(1-((5-(1-methyl-1H-pyrazol-4-yl)pyridin-3-yl)amino)-2,3-dihydro-1H-inden-4-yl)benzo[d][1,3]dioxole-5-carboxamide]",50 to 200
12,Cn1cc(-c2cncc(N[C@H]3CCc4c(C(=O)NC5CCCCC5)cccc43)n2)cn1 [Compound 27c],< 50
13,Cn1cc2ncc(N[C@H]3CCc4c(CNc5cccc(F)c5)cccc43)cc2n1 [Compound 96c],> 500
14,Cn1cc(-c2cncc(N[C@H]3CCc4c(NC(=O)c5cccc(C6CC6)c5)ccc(F)c43)c2)cn1 [Compound 46c],< 50
15,Cn1ncc2ncc(O[C@H]3CCc4c(C(=O)Nc5ccc(F)c(Cl)c5)cccc43)cc21 [Compound 76an],< 50
16,Cn1cc2ncc(N[C@H]3CCc4c(C(=O)Nc5cccc(C6CC6)c5)cccc43)cc2n1 [Compound 74a],< 50
17,CC(C)(C)c1cc(Nc2cccc3c2CC[C@@H]3Nc2cncc(Cl)c2)n[nH]1 [Compound 42e],> 500
18,COc1cccc(NC(=O)c2cccc3c2CC[C@@H]3N(C)c2cnc3cnn(C)c3c2)c1F [Compound 80x],50 to 200
19,CN(c1cnc2cn(C)nc2c1)[C@H]1CCc2c(C(=O)Nc3cccc(C4CC4)c3)cccc21 [Compound 80b],< 50
20,"Cn1cc(-c2cc(O[C@H]3CCc4c(C(=O)Nc5ccc(C(F)(F)F)cc5)cccc43)ccn2)cn1 [Compound 56, (S)-1-((2-(1-methyl-1H-pyrazol-4-yl)pyridin-4-yl)oxy)-N-(4-(trifluoromethyl)phenyl)-2,3-dihydro-1H-indene-4-carboxamide]",> 500
